Assay results as given in article PMC8394243 (Biomolecules, 2021).
Blank lines part the entries; values can stand above or below the sequence they belong to. Ends that are not written are not given here.

Legend:
[1] = SDS-PAGE; for Effect of pefabloc (serine protease inhibitor) on degradation in CF sputum, 4 h / Effect of pefabloc (serine protease inhibitor) on degradation in CF sputum, 24 h: 1 mM pefabloc pre-incubated 30 min with sputum (100-fold in TBS)
Description: Sputum from Pseudomonas-infected CF patients was obtained anonymously from the adult CF Centre at Belfast City Hospital. Sputum samples were in excess to requirements for diagnostic purposes. Permission to use sputum samples, which would have been disposed of, for validation purposes was given by the Director of R&D, Belfast Health and Social Care Trust. Sputum was frozen immediately at −80 °C and used the next day after thawing at room temperature.
Samples were transferred to a fresh Eppendorf at regular time-points (0, 1, 2, 3, 4, 18 and 24, as appropriate) and boiled on a heat block at 95 °C for ten minutes to terminate the reaction. […] CF sputum (diluted 100-fold in 1X TBS) was incubated with 0.1 mM E64, 5 mM EDTA or 1 mM pefabloc for 30 min prior to addition of peptides. Following the addition of peptide, the samples were incubated for four or 24 h at 37 °C. An aliquot was taken at 0, 4 or 24 h and boiled for ten minutes at 95 °C to terminate the reaction. Samples were stored at 4 °C until analysed by SDS-PAGE.
Peptide samples were separated by sodium dodecyl sulphate-polyacrylamide gel electrophoresis (SDS-PAGE) under denaturing and reducing conditions using 4–12% Invitrogen NuPAGE Novex Bis-Tris precast gels (Thermo Fisher Scientific, Loughborough, UK) and the Invitrogen XCell SureLock Mini-Cell (Thermo Fisher Scientific, Loughborough, UK). An aliquot of 10 μL peptide samples was incubated with 4 μL NuPAGE lithium dodecyl sulphate (LDS) sample buffer (Thermo Fisher Scientific) and 2 μL of 500 nM dithiothreitol (DTT) (Fluorochem, Hadfield, UK) for ten minutes at 95 °C and 15 μL of sample mixture loaded per lane and 5 μL of SeeBlue Plus2 pre-stained protein standard (Thermo Fisher Scientific, Loughborough, UK) loaded in at least one lane. The samples were run using 1X 2-morpholinoethanesulfonic acid (MES)-SDS running buffer (Thermo Fisher Scientific, Loughborough, UK). Electrophoresis was performed under a constant current of 125 mA for 40–60 min. The gel was stained using Biosafe Coomassie Brilliant Blue G-250 stain (Biorad, Watford, UK) for 60 min, washed and destained in water overnight and imaged using a Syngene G:box and GeneSnap software (Syngene, Cambridge, UK).

[2] = biological target: human sputum leucocyte elastase (neutrophil elastase, NE) (Homo sapiens, UniProt P08246); conditions: 500 nM NE, 37 °C, 0-4 h, hourly samples; peptide 500 μg/mL or parental molar equivalent (160 or 120 μM); SDS-PAGE, Coomassie, visual
Chain of human sputum leucocyte elastase (neutrophil elastase, NE) (Homo sapiens, UniProt P08246) (P08246 30-247 limits assumed): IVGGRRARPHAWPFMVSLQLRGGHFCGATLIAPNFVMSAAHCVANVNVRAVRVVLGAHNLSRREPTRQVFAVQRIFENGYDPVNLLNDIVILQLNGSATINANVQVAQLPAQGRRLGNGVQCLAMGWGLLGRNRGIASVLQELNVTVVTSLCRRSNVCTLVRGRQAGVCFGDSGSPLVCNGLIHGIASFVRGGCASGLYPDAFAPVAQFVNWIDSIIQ
Description: The method for reaction termination was dependent on subsequent experiments/analysis. For samples intended for investigation of peptide activity using in vitro experiments the reaction was terminated via addition of 1 mM of the serine protease inhibitor pefabloc (Merck, Gillingham, UK), which was added to all groups including the NE alone groups. Samples intended for peptide degradation analysis via SDS-PAGE or mass spectrometry were boiled at 95 °C for ten minutes using a heat block to terminate the reaction.
Peptide samples were separated by sodium dodecyl sulphate-polyacrylamide gel electrophoresis (SDS-PAGE) under denaturing and reducing conditions using 4–12% Invitrogen NuPAGE Novex Bis-Tris precast gels (Thermo Fisher Scientific, Loughborough, UK) and the Invitrogen XCell SureLock Mini-Cell (Thermo Fisher Scientific, Loughborough, UK). An aliquot of 10 μL peptide samples was incubated with 4 μL NuPAGE lithium dodecyl sulphate (LDS) sample buffer (Thermo Fisher Scientific) and 2 μL of […] dithiothreitol (DTT) (Fluorochem, Hadfield, UK) for ten minutes at 95 °C and 15 μL of sample mixture loaded per lane and 5 μL of SeeBlue Plus2 pre-stained protein standard (Thermo Fisher Scientific, Loughborough, UK) loaded in at least one lane. The samples were run using 1X 2-morpholinoethanesulfonic acid (MES)-SDS running buffer (Thermo Fisher Scientific, Loughborough, UK). Electrophoresis was performed under a constant current of 125 mA for 40–60 min. The gel was stained using Biosafe Coomassie Brilliant Blue G-250 stain (Biorad, Watford, UK) for 60 min, washed and destained in water overnight and imaged using a Syngene G:box and GeneSnap software (Syngene, Cambridge, UK).

neutrophil elastase = neutrophil elastase (Homo sapiens, UniProt P08246); conditions: 500 μg/mL peptide, 500 nM NE in 1X TBS, 4 h, 37 °C; MALDI-TOF-MS
Chain of neutrophil elastase (P08246 30-247 limits assumed): as above
Description: The method for reaction termination was dependent on subsequent experiments/analysis. […] Samples intended for peptide degradation analysis via SDS-PAGE or mass spectrometry were boiled at 95 °C for ten minutes using a heat block to terminate the reaction.
This service was provided by the University of Dundee (Dundee, UK).

[3] = system: human sputum leucocyte elastase (neutrophil elastase, NE); assay: 500 nM of NE in 1 X TBS; conditions: 37 °C, up to four hours
[4] = CF sputum (diluted 100-fold in 1X tris-buffered saline (TBS)); conditions: CF patients, 37 °C, up to four hours
[5] = 5 mM EDTA pre-incubated 30 min with sputum (100-fold in TBS), then peptide 24 h at 37 °C

Sequence: KFFKRLLKSVRRAVKKFRKKPRLIGLSTLL [Sn1]
- Effect of pefabloc (serine protease inhibitor) on degradation in CF sputum, 4 h ([1]; then peptide 4 h at 37 °C): prevented only by the inhibitor pefabloc

Sequence: KRFKKFFKKLKNSVKKRAKKFFKKPRVIGVSIPF [SnE1]
- Cleavage by neutrophil elastase [2]: gradual transition from one band of larger molecular weight to one or more bands of smaller molecular weight
- Neutrophil elastase cleavage sites (peptide cleaved after each site marked) (neutrophil elastase): KRFKKFFKKLKNSV│[…]│GVSIPF

Sequence: KRFKKFFKKLKNSV [SnE1N]
- Cleavage by neutrophil elastase [2]: appeared to remain intact
- Effect of pefabloc (serine protease inhibitor) on degradation in CF sputum, 24 h ([1]; then peptide 24 h at 37 °C): prevented degradation
- Effect of EDTA (MMP inhibitor) on degradation in CF sputum, 24 h [1, 5]: prevented degradation

Sequence: KFFKRLLKSVRRAVKKFRKK [Sn1a]
- Effect of pefabloc (serine protease inhibitor) on degradation in CF sputum, 4 h ([1]; then peptide 4 h at 37 °C): prevented only by the inhibitor pefabloc

- cleaved bond [3]: V-R
Sequence: KRFKKFFKRLLKSVRRAVKKFRKK

- cleaved bond [3]: V-K and I-G
Sequence: KRFKKFFKKLKNSVKKRAKKFFKKPRVIGVSIPF

- cleaved bond [3]: V-K and I-F
Sequence: KRFKKFFKKVKKSVKKRLKKIFKKPMVIGVTIPF

Sequence: KRFKKFFKKVKKSVKKRLKKIFKKPMVIGVTIPF [SnV1]
- Effect of pefabloc (serine protease inhibitor) on degradation in CF sputum, 4 h ([1]; then peptide 4 h at 37 °C): prevented only by the inhibitor pefabloc

Sequence: KRFKKFFKRLLKSVRRAVKKFRKK [Sn1b]
- Cleavage by neutrophil elastase [2]: rapidly cleaved
- Effect of EDTA (MMP inhibitor) on degradation in CF sputum, 4 h ([1]; 5 mM EDTA pre-incubated 30 min with sputum (100-fold in TBS), then peptide 4 h at 37 °C): inhibited

Sequence: KRFKKFFKRLLKSV
- not cleaved [4]: did not exhibit obvious degradation when incubated with CF sputum after 4 h

Sequence: KRFKKFFKRLLKSV [Sn1bN]
- Cleavage by neutrophil elastase [2]: did not result in obvious cleavage

Sequence: KRFKKFFKKLKNSVKKRAKKFFKKPRVI [SnE1-F]
- Cleavage by neutrophil elastase [2]: gradual transition from one band of larger molecular weight to one or more bands of smaller molecular weight
- Effect of E64 (cysteine protease inhibitor) on degradation in CF sputum, 24 h ([1]; 0.1 mM E64 pre-incubated 30 min with sputum (100-fold in TBS), then peptide 24 h at 37 °C): did not prevent
- Effect of pefabloc (serine protease inhibitor) on degradation in CF sputum, 4 h ([1]; then peptide 4 h at 37 °C): prevented in the presence of pefabloc
- Effect of pefabloc (serine protease inhibitor) on degradation in CF sputum, 24 h ([1]; then peptide 24 h at 37 °C): prevented the degradation
- Effect of EDTA (MMP inhibitor) on degradation in CF sputum, 24 h [1, 5]: did not prevent
- Degradation in CF sputum within 4 h ([1]; CF sputum diluted 100-fold in 1X TBS, 37 °C, 0-4 h, peptide 500 μg/mL or parental molar equivalent (160 or 120 μM), Coomassie, visual): some degradation
